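Each compound was tested at five concentrations against cells in 96-well plates for 48 hours. GI50 = concentration required for 50% inhibition of growth.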 Activity calls are given as the source filed them. No stated cut-off is given here; in the data, active = GI50 up to about 1.1 µM and inactive = higher.
Assays:
Experiment in all cases: NCI-60 cell line screen, 48 h
[1] = test system: EKVX
[2] = test system: LOX IMVI
[3] = test system: MOLT-4
[4] = test system: CAKI-1
[5] = test system: OVCAR-4
[6] = test system: IGROV-1
[7] = test system: SN12C
[8] = test system: SK-MEL-28
[9] = test system: SF-295
[10] = test system: Malme-3M
[11] = test system: HT-29
[12] = test system: DU-145
[13] = test system: MDA-N
[14] = test system: NCI-H226
[15] = test system: NCI-H522
[16] = test system: K562
[17] = test system: NCI-H23
[18] = test system: OVCAR-8
[19] = test system: RPMI-8226
[20] = test system: A498

Measured: GI50

Cc1ncc([N+](=O)[O-])n1CCNC(=O)CCn1ccnc1[N+](=O)[O-]
inactive: [1] > 100 µM | [2] > 100 µM | [3] > 100 µM | [4] > 100 µM | [5] > 100 µM | [6] > 100 µM | [7] > 100 µM | [8] > 100 µM | [9] > 100 µM | [10] > 100 µM | [11] > 100 µM | [12] > 100 µM | [13] > 100 µM | [14] > 100 µM | [15] > 100 µM | [16] > 100 µM | [17] > 100 µM | [18] > 100 µM | [19] > 100 µM

O=C1C2CCCC2N1Cc1ccccc1 (configuration not stated)
inactive: [1] > 100 µM | [2] > 100 µM | [3] > 100 µM | [4] > 100 µM | [5] 23.3 µM | [6] > 100 µM | [7] > 100 µM | [9] > 100 µM | [11] > 100 µM | [12] > 100 µM | [13] > 100 µM | [14] > 100 µM | [15] > 100 µM | [16] > 100 µM | [17] > 100 µM | [18] > 100 µM | [19] > 100 µM | [20] > 100 µM

CC(C)CCCC(C)[C@H]1CC[C@H]2N/C(=N/Cc3ccccc3)CCC[C@]12C (some centres not stated)
inactive: [2] 1.92 µM | [3] 1.88 µM | [4] 2.25 µM | [5] 1.98 µM | [6] 1.74 µM | [7] 1.84 µM | [8] 1.47 µM | [9] 2.03 µM | [10] 1.97 µM | [11] 1.28 µM | [12] 2.52 µM | [13] 1.71 µM | [14] 2.07 µM | [16] 1.26 µM | [17] 2.23 µM | [18] 1.67 µM | [19] 1.59 µM | [20] 1.95 µM

CC1(C)Cc2ccccc2C(C)(Cl)C(=O)N1 (configuration not stated)
inactive: [1] > 10 µM | [3] > 10 µM | [4] > 10 µM | [5] > 10 µM | [6] > 10 µM | [7] > 10 µM | [8] > 10 µM | [9] > 10 µM | [10] > 10 µM | [11] > 10 µM | [12] > 10 µM | [13] > 10 µM | [14] > 10 µM | [16] > 10 µM | [17] > 10 µM | [18] > 10 µM | [19] > 10 µM | [20] > 10 µM

O=C1Nc2ccccc2/C1=N/N1C(=O)/C(=C/c2ccccc2S)N=C1c1ccccc1
inactive: [1] 48.3 µM | [2] 44.9 µM | [3] 19.5 µM | [4] 91.6 µM | [5] 27 µM | [6] 97.1 µM | [7] > 100 µM | [8] > 100 µM | [9] > 100 µM | [10] > 100 µM | [11] > 100 µM | [12] > 100 µM | [13] 82.4 µM | [15] 40.5 µM | [16] 27.9 µM | [17] 57.7 µM | [18] 36.2 µM | [19] 12.6 µM | [20] > 100 µM

COc1cc(/N=N/N(C)C)c(C(C)c2c3cc(OC)c(OC)cc3cc[n+]2C)cc1OC (configuration not stated)
inactive: [1] > 100 µM | [2] 25.2 µM | [3] 56.1 µM | [4] > 100 µM | [5] 51.9 µM | [6] 36.9 µM | [7] 40.5 µM | [9] > 100 µM | [10] 34.4 µM | [11] 35.4 µM | [12] 62.7 µM | [13] 34.8 µM | [14] 78.5 µM | [16] 18.1 µM | [17] 41.6 µM | [18] 39.1 µM | [19] 7.76 µM | [20] > 100 µM

NC(c1ccccc1)(C(F)(F)F)P1(=O)OC(=O)c2ccccc2O1 (configuration not stated)
inactive: [1] > 100 µM | [3] 48.8 µM | [4] > 100 µM | [5] > 100 µM | [6] > 100 µM | [7] > 100 µM | [8] > 100 µM | [9] > 100 µM | [11] > 100 µM | [12] > 100 µM | [13] > 100 µM | [14] > 100 µM | [16] > 100 µM | [17] > 100 µM | [18] > 100 µM | [19] > 100 µM | [20] 84.1 µM

O=C(/C(=N\Nc1ccc([N+](=O)[O-])cc1[N+](=O)[O-])NC12CC3CC(CC(C3)C1)C2)C(Br)C(=O)c1ccccc1 (configuration not stated)
inactive: [1] 3.56 µM | [2] 2.43 µM | [3] 3.52 µM | [4] 3.2 µM | [5] 2.77 µM | [6] 6.67 µM | [7] 3.12 µM | [8] 9.31 µM | [9] 3.99 µM | [10] 3.13 µM | [11] 4.45 µM | [12] 4.48 µM | [13] 4.69 µM | [14] 2.52 µM | [16] 2.8 µM | [17] 3.33 µM | [18] 3.48 µM | [19] 1.84 µM | [20] 2.71 µM

Nc1cccc(OCC2CCCN3CCCCC23)c1 (configuration not stated)
inactive: [1] 17.2 µM | [2] 15.8 µM | [3] 20.9 µM | [4] 17.6 µM | [5] 23.2 µM | [7] 16.7 µM | [8] 19.1 µM | [9] 17.8 µM | [10] 23.5 µM | [11] 12.6 µM | [12] 17.5 µM | [13] 16 µM | [14] 41.7 µM | [16] 22 µM | [17] 17.7 µM | [18] 18.7 µM | [19] 15.2 µM | [20] 14.4 µM

NC1=NCC(CN2CCCC2)O1 (configuration not stated)
inactive: [1] > 100 µM | [2] > 100 µM | [3] > 100 µM | [4] > 100 µM | [5] > 100 µM | [6] > 100 µM | [7] > 100 µM | [8] > 100 µM | [9] > 100 µM | [10] > 100 µM | [11] > 100 µM | [12] > 100 µM | [13] > 100 µM | [15] > 100 µM | [16] > 100 µM | [17] > 100 µM | [18] > 100 µM | [19] > 100 µM | [20] > 100 µM

CC(C)(C)OC(=O)N(O)[C@@H]1CC[C@H](n2cnc3c(N)ncnc32)C1
inactive: [1] > 100 µM | [2] > 100 µM | [3] > 100 µM | [5] > 100 µM | [6] 54.5 µM | [7] > 100 µM | [8] > 100 µM | [9] > 100 µM | [10] > 100 µM | [11] > 100 µM | [12] > 100 µM | [13] > 100 µM | [14] > 100 µM | [15] > 100 µM | [16] > 100 µM | [17] > 100 µM | [18] > 100 µM | [19] > 100 µM | [20] > 100 µM

CC1=[N+](C)CCN1C
inactive: [1] > 100 µM | [2] > 100 µM | [3] > 100 µM | [4] > 100 µM | [5] > 100 µM | [6] > 100 µM | [7] > 100 µM | [8] > 100 µM | [9] > 100 µM | [10] > 100 µM | [11] > 100 µM | [12] > 100 µM | [13] > 100 µM | [14] > 100 µM | [15] > 100 µM | [16] > 100 µM | [17] > 100 µM | [18] > 100 µM | [19] > 100 µM

CCCCN(CCCC)CC(O)c1cc(-c2ccc(Cl)c(Cl)c2)nc2c(Cl)cc(Cl)cc12 (configuration not stated)
inactive: [1] 49.1 µM | [2] 88.1 µM | [3] 46.2 µM | [5] > 100 µM | [6] > 100 µM | [7] 47.4 µM | [8] > 100 µM | [9] > 100 µM | [10] > 100 µM | [11] > 100 µM | [12] > 100 µM | [13] > 100 µM | [16] > 10 µM | [17] 49.5 µM | [18] > 100 µM | [19] 37.1 µM | [20] > 100 µM

Cn1c(=O)c2sc3c4sc5c(=O)n(C)c6ccccc6c5c4sc3c2c2ccccc21
inactive: [1] > 100 µM | [3] > 100 µM | [4] > 100 µM | [5] 98.9 µM | [6] > 100 µM | [7] > 100 µM | [8] > 100 µM | [10] > 100 µM | [11] > 100 µM | [12] > 100 µM | [13] > 100 µM | [14] > 100 µM | [15] > 100 µM | [16] > 100 µM | [17] > 100 µM | [18] > 100 µM | [19] > 100 µM | [20] > 100 µM

CC(C(=O)N1C(=O)N(C(=O)[C@H](C)C(O)c2ccccc2)[C@H](c2ccccc2)[C@H]1c1ccccc1)[C@@H](O)c1ccccc1 (some centres not stated)
inactive: [1] 21.1 µM | [4] 20 µM | [5] 26.5 µM | [6] 12 µM | [7] 38.8 µM | [8] > 100 µM | [9] 29.2 µM | [11] 36.6 µM | [12] 50.5 µM | [13] 20 µM | [14] 27 µM | [15] 30.3 µM | [16] 17.5 µM | [17] 44.4 µM | [18] 25.1 µM | [20] 24.3 µM

Source: ChEMBL document CHEMBL1201862, “PubChem BioAssay data set” (2004)
